In this assay the test system is Lipaphis erysimi. The experiment in a line: Antifeedant activity against apterous adult stage of Lipaphis erysimi (mustard aphids) in compound pre-treated cabbage leaves assessed as antifeedant ratio measured after 48 hr. The assay is classed as functional.
Take `CCC(=O)OC1CC(C(C)(C)O)CC=C1C` (stereo unspecified): the Ratio came out at 0.526. The value for `CC(=O)OC1CC(C)CCC1C(C)C` (stereo unspecified) was 0.533. Take `C=C(C)C1CC=C(CCOC(C)=O)CC1` (stereo unspecified): the Ratio is 0.674. On to `C=C(C)C1CC=C(CCOC(=O)CC)CC1` (stereo unspecified), for which the Ratio was 0.701.

With `CC1=CCC(C(C)(C)O)CC1OC=O` (stereo unspecified), the Ratio is 0.42. For the compound `CC(=O)OCCC1C2CCC(C2)C1(C)C` (stereo unspecified), the Ratio stood at 0.628. The value for `CCCOCCC1=CCC2CC1C2(C)C` (stereo unspecified) was 0.504. The value for `CC1(C)C2CC=C(CCOC=O)C1C2` (stereo unspecified) was 0.518; that for `CCC(CCCC1C2CCC(C2)C1(C)C)OC(C)=O` (stereo unspecified) was 0.83. `CCC(CCC1C2CCC(C2)C1(C)C)C(C)OC(C)=O` (stereo unspecified): the Ratio was 0.786. Take `CCC(=O)OC1CC(C)CCC1C(C)C` (stereo unspecified): the Ratio is given as 0.505. The result for `CCOCCC1=CCC2CC1C2(C)C` (stereo unspecified) reads 0.522; that for `CC(=O)OCCC1=CCC2CC1C2(C)C` (stereo unspecified), 0.572; that for `CCC(=O)OCCC1=CCC2CC1C2(C)C` (stereo unspecified), 0.63. As for `CC1(C)C2CC3OC3(C)C1C2` (stereo unspecified), the Ratio is 0.415.

As for `COCCC1=CCC2CC1C2(C)C` (stereo unspecified), the Ratio was 0.548. The value for `CC(=O)OC1CC(C(C)(C)O)CC=C1C` (stereo unspecified) was 0.476; that for `CCCC(CCCC1C2CCC(C2)C1(C)C)OC(C)=O` (stereo unspecified) was 0.813.

With `CC1CCC(C(C)C)C(O)C1` (stereo unspecified) [MENTHOL], the Ratio came to 0.584. The result for `CC1(C)C2CC=C(CCO)C1C2` (stereo unspecified) [Nopol] reads 0.47; that for `CC1=CCC(C(C)(C)O)CC1O` (stereo unspecified) [SOBREROL], 0.463.
